Data reported in the RepoRT retention time repository.

Experiment: HILIC, Waters ACQUITY UPLC BEH Amide, 100 × 2.1 mm, 1.7 µm; A: water + 0.125% formic acid + 10 mM ammonium formate; B: 5% water + 95% acetonitrile + 0.125% formic acid + 10 mM ammonium formate; gradient (min/%B) 0/100 2/100 7.7/70 9.5/40 10.25/30 12.75/100 17/100
Details: stereoisomer not certain

CN1CCN(c2c(F)cc3c(=O)c(C(=O)O)cn4c3c2SCC4)CC1 [Rufloxacin]
LC retention time: 4.65 min

O=c1cc(-c2ccccc2)oc2ccc(O)cc12 [6-Hydroxyflavone]
LC retention time: 1.26 min

O=c1ccn(C2CC(O)C(CO)O2)c(=O)[nH]1 (configuration not stated) [2-Deoxyuridine]
LC retention time: 2.96 min

CN(CC=CC#CC(C)(C)C)Cc1cccc2ccccc12 [Terbinafine]
LC retention time: 1.33 min

NCCCC(=O)O [gamma-Aminobutyric Acid]
LC retention time: 7.86 min

CNC(Cc1ccccc1)C(=O)O (configuration not stated) [N-Methylphenylalanine]
LC retention time: 6.22 min

O=S(=O)(O)CCNC(CO)(CO)CO [TES]
LC retention time: 7.7 min

CN(C)CCOc1ccc(C(=C(CCCl)c2ccccc2)c2ccccc2)cc1 [Toremifene]
LC retention time: 1.89 min

CC(=O)NC(C)C(=O)O (configuration not stated) [N-Acetylalanine]
LC retention time: 4.83 min

CN1CC(=O)NC1=N [Creatinine]
LC retention time: 4.93 min

NC(N)=NCCCC(=O)O [4-Guanidinobutyric acid]
LC retention time: 7.72 min

NCCCCC(N)C(=O)O (configuration not stated) [Lysine]
LC retention time: 9.54 min

Cc1c2oc3c(C)ccc(C(=O)NC4C(=O)NC(C(C)C)C(=O)N5CCCC5C(=O)N(C)CC(=O)N(C)C(C(C)C)C(=O)OC4C)c3nc-2c(C(=O)NC2C(=O)NC(C(C)C)C(=O)N3CCCC3C(=O)N(C)CC(=O)N(C)C(C(C)C)C(=O)OC2C)c(N)c1=O (configuration not stated) [Actinomycin D]
LC retention time: 1.03 min

CCC1=C(C)CN(C(=O)NCCc2ccc(S(=O)(=O)NC(=O)NC3CCC(C)CC3)cc2)C1=O (configuration not stated) [Glimepiride]
LC retention time: 1.05 min

O=c1c(-c2ccc(O)cc2)coc2cc(O)cc(O)c12 [4,5,7-Trihydroxyisoflavone]
LC retention time: 1.27 min

CCC(=O)OC(CC(=O)[O-])C[N+](C)(C)C (configuration not stated) [Propionylcarnitine]
LC retention time: 6.41 min

NC(=O)C(N)Cc1c[nH]c2ccccc12 (configuration not stated) [Tryptophanamide]
LC retention time: 5.91 min

N=C1NC(=O)C(c2ccccc2)O1 (configuration not stated) [Pemoline]
LC retention time: 1.39 min

O=c1c(-c2ccc(O)cc2)coc2cc(O)ccc12 [Daidzein]
LC retention time: 1.39 min

NC(CC(=O)O)C(=O)O (configuration not stated) [Aspartic acid]
LC retention time: 9.33 min

OCC1OC(OC2C(O)OC(CO)C(O)C2O)C(O)C(O)C1O (stereo not drawn) [2-alpha-Mannobiose]
LC retention time: 9.47 min

Oc1cc2ccccc2[nH]1 [2-Indolinone]
LC retention time: 1.36 min

Cn1cncc1CC(NC(=O)CCN)C(=O)O (configuration not stated) [Anserine]
LC retention time: 9.49 min

CC(C)=CCCC(C)O (configuration not stated) [6-Methyl-5-hepten-2-ol]
LC retention time: 7.3 min

CC(=O)CCCC(=O)O [4-Acetylbutyric acid]
LC retention time: 1.24 min

CC1=NS(=O)(=O)c2cc(Cl)ccc2N1 [Diazoxide]
LC retention time: 1.09 min

CS(=O)CCCCC(=NO)SC1OC(CO)C(O)C(O)C1O (configuration not stated) [Desulfo Glucoraphanin]
LC retention time: 6.61 min

COc1ccnc(CS(=O)c2nc3ccc(OC(F)F)cc3[nH]2)c1OC (configuration not stated) [Pantoprazole]
LC retention time: 1.21 min

CCCCCCCCCCCCCCCCCC(=O)OCC(O)CO (configuration not stated) [1-Monostearin]
LC retention time: 0.99 min

CC(C)CC1NC(=O)C2CCCN2C1=O (configuration not stated) [Cyclo(Leu-Pro)]
LC retention time: 1.29 min

CC(=O)N1CCN(c2ccc(OCC3COC(Cn4ccnc4)(c4ccc(Cl)cc4Cl)O3)cc2)CC1 (configuration not stated) [Ketoconazole]
LC retention time: 1.73 min

C#CCN(C)C(C)Cc1ccccc1 (configuration not stated) [Selegiline]
LC retention time: 1.5 min

Nc1ccc(C(=O)O)cc1 [4-Aminobenzoic acid]
LC retention time: 7.49 min

COC1C(CO)OC(n2ccc(=O)[nH]c2=O)C1O (configuration not stated) [3'-O-Methyluridine]
LC retention time: 2.42 min

CC(C)(CO)C(O)C(=O)NCCC(=O)O (configuration not stated) [Pantothenic acid]
LC retention time: 3.5 min

CCOC(=O)C(CCc1ccccc1)NC(C)C(=O)N1C(C(=O)O)CC2CCCC21 (configuration not stated) [Ramipril]
LC retention time: 1.4 min

Cn1c(=O)ccn(C2OC(CO)C(O)C2O)c1=O (configuration not stated) [3-Methyluridine]
LC retention time: 1.12 min

NC(N)=NCCC(=O)O [3-Guanidinopropionic acid]
LC retention time: 8.15 min

O=C(O)CCC(O)C(=O)O (configuration not stated) [2-Hydroxyglutaric acid]
LC retention time: 0.91 min

O=C(O)Cc1c[nH]c2ccccc12 [3-Indoleacetic acid]
LC retention time: 1.33 min

NC(Cn1ccc(=O)[nH]c1=O)C(=O)O (configuration not stated) [Willardiine]
LC retention time: 8.72 min

CC(C)(N)Cc1ccccc1 [Phentermine]
LC retention time: 6.23 min

NCC(=O)NCC(=O)NCC(=O)O [Gly-Gly-Gly]
LC retention time: 9.18 min

COC1C=COC2(C)Oc3c(C)c(O)c4c(O)c(c(C=NN5CCN(C6CCCC6)CC5)c(O)c4c3C2=O)NC(=O)C(C)=CC=CC(C)C(O)C(C)C(O)C(C)C(OC(C)=O)C1C (configuration not stated) [Rifapentine]
LC retention time: 1.81 min

CC(=O)CCCCn1c(=O)c2c(ncn2C)n(C)c1=O [Pentoxifylline]
LC retention time: 1.09 min

COc1cc(C=Cc2ccc(O)cc2)cc(OC)c1 [Pterostilbene]
LC retention time: 0.98 min

NC(CSCC(=O)O)C(=O)O (configuration not stated) [Carbocysteine]
LC retention time: 9.04 min

CN1CCC23CCCCC2C1Cc1ccc(O)cc13 (configuration not stated) [Dextrorphan]
LC retention time: 3.87 min

CN=C(NC)NCCCC(N)C(=O)O (configuration not stated) [SDMA]
LC retention time: 8.49 min

CC12CCC(=O)C=C1CCC1C2CCC2(C)C1CCC2(C)O (configuration not stated) [Methyltestosterone]
LC retention time: 1.04 min

CC(C)(CO)C(O)C(=O)NCCCO (configuration not stated) [Panthenol]
LC retention time: 1.9 min

CC(N)C(=O)O (configuration not stated) [Alanine]
LC retention time: 8.05 min

Cc1ccsc1C(=CCCN1CCCC(C(=O)O)C1)c1sccc1C (configuration not stated) [Tiagabine]
LC retention time: 3.94 min

CNC1CCC(c2ccc(Cl)c(Cl)c2)c2ccccc21 (configuration not stated) [Sertraline]
LC retention time: 2.74 min

CC(C)C(NC(=O)CN)C(=O)O (configuration not stated) [Gly-val]
LC retention time: 8.05 min

COc1ccc2c(c1)c(CC(=O)O)c(C)n2C(=O)c1ccc(Cl)cc1 [Indomethacin]
LC retention time: 1.08 min

O=C(O)C1NCCC1O (configuration not stated) [3-Hydroxyproline]
LC retention time: 8.17 min

CC1OC(OCC2OC(Oc3c(-c4ccc(O)cc4)oc4cc(O)cc(O)c4c3=O)C(O)C(O)C2O)C(O)C(O)C1O (configuration not stated) [Kaempferol-3-O-rutinoside]
LC retention time: 6.09 min

CNC(CC(=O)O)C(=O)O (configuration not stated) [N-Methylaspartic acid]
LC retention time: 2.53 min

CC(CCCCC(=O)Nc1ccc(C(F)(F)F)cc1)NCCc1cnc[nH]1 (configuration not stated) [Histamine-trifluoromethyltoluide]
LC retention time: 5.3 min

CC(C)(C)NC(=O)C1CN(Cc2cccnc2)CCN1CC(O)CC(Cc1ccccc1)C(=O)NC1c2ccccc2CC1O (configuration not stated) [Indinavir]
LC retention time: 2.17 min

Cc1nc2n(c(=O)c1CCN1CCC(c3noc4cc(F)ccc34)CC1)CCCC2 [Risperidone]
LC retention time: 3.52 min

CCCCCCCCOC(=O)c1ccccc1C(=O)OCCCCCCCC [Dioctyl Phthalate]
LC retention time: 0.96 min

O=C1CCNC(=O)N1 [5,6-Dihydrouracil]
LC retention time: 1.77 min

CC1CNc2c(cccc2S(=O)(=O)NC(CCCN=C(N)N)C(=O)N2CCC(C)CC2C(=O)O)C1 (configuration not stated) [Argatroban]
LC retention time: 5.45 min

CC(=O)OC1CC2CCC3C(CCC4(C)C3CC([N+]3(C)CCCCC3)C4OC(C)=O)C2(C)CC1N1CCCCC1 (configuration not stated) [Vercuronium]
LC retention time: 5.53 min

NCCCCC(NC(=O)C(N)CCC(=O)O)C(=O)O (configuration not stated) [Glu-Lys]
LC retention time: 9.9 min

NC1CCN(c2nc3c(cc2F)c(=O)c(C(=O)O)cn3-c2ccc(F)cc2F)C1 (configuration not stated) [Tosufloxacin]
LC retention time: 4.87 min

NC(N)=NCCCC(N)C(=O)NCC(=O)O (configuration not stated) [Arg-Gly]
LC retention time: 9.85 min

CN(C)C(CCCN=C(N)N)C(=O)O (configuration not stated) [N,N-Dimethylarginine]
LC retention time: 9.1 min

COc1ccc(CC(C)NCC(O)c2ccc(O)c(NC=O)c2)cc1 (configuration not stated) [Formoterol]
LC retention time: 5.18 min

CSCCCN [3-Methylthiopropylamine]
LC retention time: 5.16 min

NC(=O)NC(NC(N)=O)C(=O)O [Allantoic acid]
LC retention time: 8.56 min

COc1ccc2[nH]cc(C3=CCNCC3)c2c1
LC retention time: 4.61 min

c1ccc2scnc2c1 [Benzothiazole]
LC retention time: 1.11 min

NC(Cc1ccc(O)cc1)C(=O)O (configuration not stated) [Tyrosine]
LC retention time: 7.61 min

NC(=O)CCCCC1CCSS1 (configuration not stated) [Lipoamide]
LC retention time: 1.25 min

CC1C(c2ccccc2)OCCN1C (configuration not stated) [Phendimetrazine]
LC retention time: 2.52 min

NC(Cc1ccc(O)c([N+](=O)[O-])c1)C(=O)O (configuration not stated) [3-Nitrotyrosine]
LC retention time: 6.88 min

Nc1nc2c(ncn2C2OC(CO)C(O)C2O)c(=O)[nH]1 (configuration not stated) [Guanosine]
LC retention time: 7.33 min

O=C(C=CC=Cc1ccc2c(c1)OCO2)N1CCCCC1 [Piperine]
LC retention time: 1.1 min

O=Cc1cccc(O)c1 [3-Hydroxybenzaldehyde]
LC retention time: 1.18 min

CC(C)CC(NC(=O)CCC(N)C(=O)O)C(=O)O (configuration not stated) [gamma-Glutamylleucine]
LC retention time: 8.1 min

CCNC(C)Cc1ccc2c(c1)OCO2 (configuration not stated) [3,4-Methylenedioxyethamphetamine]
LC retention time: 2.94 min

COCc1c(C(C)C)nc(C(C)C)c(C=CC(O)CC(O)CC(=O)O)c1-c1ccc(F)cc1 (configuration not stated) [Cerivastatin]
LC retention time: 1.18 min

CCCCCCCCO [Octanol]
LC retention time: 8.47 min

CC(N)Cc1ccccc1 (configuration not stated) [Amphetamine]
LC retention time: 4.6 min

CC12CCC3c4ccc(O)cc4CCC3C1CCC2=O (configuration not stated) [1,3,5(10)-Estratrien-3-ol-17-one]
LC retention time: 1.01 min

O=C(O)CC(O)CC(O)C=Cc1c(C2CC2)nc2ccccc2c1-c1ccc(F)cc1 (configuration not stated) [Pitavastatin]
LC retention time: 1.36 min

COc1ccc(C(CN(C)C)C2(O)CCCCC2)cc1 (configuration not stated) [Venlafaxine]
LC retention time: 2.44 min

NCCS(=O)(=O)O [Taurine]
LC retention time: 7.85 min

CC(=O)OC(CC(=O)[O-])C[N+](C)(C)C (configuration not stated) [Acetylcarnitine]
LC retention time: 7.19 min
